Measurements taken from patent US20230099067A1, “STABLE EQUIVALENT OF RESOLVIN E2” (NATIONAL UNIVERSITY CORPORATION HOKKAIDO UNIVERSITY, priority 2020, published 2023).

What was measured:
[1] = test system: mouse acute inflammation model induced by intraperitoneally transplanting Propionibacterium acnes; assay: Anti-inflammatory property evaluation assay: neutrophil count in peritoneal exudate of the P. acnes-induced mouse acute inflammation model; type: in vivo, mouse (male BALB/c); conditions: for anti-inflammatory activity as compared with the RvE2 and o-BZ-RvE2 groups / number of neutrophils in peritoneal exudate as compared with P. acnes-inoculated control mice: 300 pg intraperitoneally 8 hours after P. acnes injection, FIG. 3; for number of neutrophils in peritoneal exudate as compared with P. acnes-inoculated control mice: n=3 or 4
Description: The strength of the anti-inflammatory action of each compound was evaluated by using a mouse acute inflammation model induced by intraperitoneally transplanting Propionibacterium acnes.
The mouse acute inflammation model was produced using male BALB/c mice (6 to 7 weeks, obtained from Japan SLC Inc.). First, Propionibacterium acnes (P. acnes; 500 μg per mouse) subjected to heat sterilization was intraperitoneally injected into a mouse to prepare an acute inflammation model mouse. Eight or twelve hours after the injection of Propionibacterium acnes, the test compound was intraperitoneally administered to an acute inflammation model mouse. Then, 24 hours after the injection of Propionibacterium acnes, a peritoneal exudate was collected and the number of neutrophils was counted.
Then, 24 hours after the injection of Propionibacterium acnes, a peritoneal exudate was collected and the number of neutrophils was counted.
12 hours after the injection of Propionibacterium acnes, 300 fg, 300 pg, or 300 ng of RvE2 or o-BZ-RvE2, or only a solvent was independently intraperitoneally administered to acute inflammation model mice (n=3 or 4). Then, 24 hours after the injection of Propionibacterium acnes, a peritoneal exudate was collected and the number of neutrophils was counted.
300 pg of RvE2, o-BZ-RvE2, 17-deoxy-o-BZ-RvE2, 5-deoxy-o-BZ-RvE2, or 5,17-dideoxy-o-BZ-RvE2, or only a solvent was intraperitoneally administered to acute inflammation model mice 8 hours after the injection of Propionibacterium acnes (n=3 or 4). Then, 24 hours after the injection of Propionibacterium acnes, a peritoneal exudate was collected and the number of neutrophils was counted.

[2] = Evaluation of metabolic stability with human liver microsomes (HPLC remaining rate); type: in vitro ADME; conditions: 37° C.; for temporal change in the remaining rate in the presence of human liver microsomes: 0.1 M PBS (pH 7.4), HPLC, n=3, FIG. 4; for metabolic stability / degradation by human liver microsomes (in words): Example 1, 0-6 hours, FIG. 2
Description: 60 μL was aliquoted from an ethanol solution (1 mg/1 mL) of the synthetic compound to be evaluated, and the solvent was removed. A 0.1 M PBS buffer (435 μL, pH 7.4), CH3CN (10 μL), an NADPH regeneration system A solution (25 μL), and an NADPH regeneration system B solution (5 μL) were added to each compound, and stirring was carried out with a vortex mixer. After incubating the obtained reaction solution at 37° C. for 5 minutes, human liver microsomes (Corning (registered trade name) UltraPool (registered trade name) HLM 150) (25 μL) were added thereto, and 80 μL of the solution was aliquoted every hour (after 0, 1, 2, 3, and 6 hours from the addition). Each of the aliquoted solutions was quenched by adding CH3CN (80 μL) and then centrifuged (10,000 rpm) for 3 minutes at room temperature. The supernatant was collected and analyzed by using HPLC (COSMOSIL 5C18-MS-II, 4.6 mm×250 mm, CH3CN/H2O/TFA=35/65/0.01, 1.0 mL/min, detection at 254 nm).
The metabolic stability of 17-deoxy-o-BZ-RvE2 and 5-deoxy-o-BZ-RvE2 with respect to human liver microsomes was investigated. Specifically, for RvE2, o-BZ-RvE2, 17-deoxy-o-BZ-RvE2, and 5-deoxy-o-BZ-RvE2, the temporal change in the remaining rate (%) was measured by HPLC in 0.1 M PBS (pH 7.4) in the presence of human liver microsomes at 37° C. (n=3).

[3] = background statement; cited from earlier work
[4] = background statement; cited from earlier work; remark: listed apart in the source
[5] = exudate collected 24 hours after injection

| metabolic stability / degradation by human liver microsomes (in words) [2] | Structure (SMILES) | anti-inflammatory activity as compared with the RvE2 and o-BZ-RvE2 groups ([1]; exudate at 24 hours) | number of neutrophils in peritoneal exudate as compared with P. acnes-inoculated control mice [1, 5] | temporal change in the remaining rate in the presence of human liver microsomes [2] | stability with respect to oxygen as compared with RvE2 [3] | metabolic stability [4] | infiltration of neutrophils into the abdominal cavity (number of neutrophils in peritoneal exudate) as compared with solvent alone ([1]; 300 pg intraperitoneally 12 hours after P. acnes injection, exudate collected 24 hours after injection, n=4, FIG. 1(a)) | anti-inflammatory action as compared with RvE2 ([1]; 300 fg, 300 pg or 300 ng intraperitoneally 12 hours after P. acnes injection, exudate at 24 hours, FIGS. 1(a) and 1(b)) |
| --- | --- | --- | --- | --- | --- | --- | --- | --- |
|  | CCC/C=C/c1ccccc1C/C=C/CCCCC(=O)O [5,17-dideoxy-o-BZ-RvE2] | attenuated | significantly decreased |  |  |  |  |  |
|  | CC[C@@H](O)/C=C/c1ccccc1C/C=C/CCCCC(=O)O [5-deoxy-o-BZ-RvE2] | attenuated | significantly decreased | gradually decreased as compared with RvE2 |  |  |  |  |
|  | CCC(O)C=CC=CCC1CC1CC=CC=CC(O)CCCC(=O)O (centres unmarked) [CP-RvE2] |  |  |  | improved stability with respect to oxygen | insufficient metabolic stability |  |  |
| easily degraded | CC[C@@H](O)/C=C/C=C\C/C=C\C/C=C\C=C\[C@@H](O)CCCC(=O)O [RvE2, (5S,6E,8Z,11Z,14Z,16E,18R)-5,18-dihydroxyicosa-6,8,11,14,16-pentaenoic acid, reference compound] |  | significantly decreased | decreased with the passage of time |  |  |  |  |
| excellent in metabolic stability | CC[C@@H](O)/C=C/c1ccccc1C/C=C/[C@@H](O)CCCC(=O)O [o-BZ-RvE2] |  | significantly decreased |  |  |  | significantly suppressed | excellent anti-inflammatory action as compared with RvE2 |
